Reference: patent US10399958B2, “PPAR agonists, compounds, pharmaceutical compositions, and methods of use thereof” (Mitobridge, Inc., priority 2015, dated 2019)
Like-named read-outs stand apart in the source and are kept apart here.

What was measured:
[1] = Pharmacokinetic (PK) screening (i.v.) in male CD1 mice; type: in vivo, mouse; settings: male, CD1, mouse, plasma, iv, 1 mg/kg, I.V. 1 mg/kg dose, plasma
Method: In this example, the intravenous PK profile of several PPARδ agonists disclosed herein in male CD1 mice was determined. Similar methods can be used to analyze other compounds provided herein. All compounds were administered separately to CD1 mice at 1 mg/kg (i.v.), except the comparator compound to 2c was administered at 3 mg/kg (i.v.), as noted below.

[2] = tested on: DMD human skeletal muscle cells; test: Mitochondrial biogenesis (BrdU labeling); type: cell-based; settings: DMD patient cells, treated from day 4 of differentiation, FIG. 2
Method: DMD human skeletal muscle cells were plated into 96 well plates. Media was changed to Differentiation Medium and cells were allowed to differentiate for 7 days. […] Three days later cells were labeled with bromodeoxyuridine (BrdU) in culture media for 2 hours. Following the incubation, cells were washed, and then incubated with anti-BrdU antibody overnight at 4° C. The next day, samples were washed incubated with anti-mouse IgG HRP for 45 min at 37° C., and then washed. Optical density was measured at 450 nm wavelength on a SpectraMax M5 (Molecular Devices).
Data was analyzed in Graph Pad Prism. Normality of distribution was determined by D'Agostino-Pearson omnibus normality test. If the samples were normally distributed, they were analyzed by One-Way ANOVA followed by a post hoc Dunnett's test vs DMSO control cells or unpaired two tailed T-test. If the samples were not normally distributed, then a Kruskal-Wallis test was used to determine significance.

mdx mouse = test: Endurance running assay (treadmill) in mdx mouse model of Duchenne Muscular Dystrophy; type: in vivo; settings: mdx mice, 10 or 30 mg per kg PO, 34-35 days, FIG. 3
Text: PPARδ is activated in response to exercise where it will elicit an increase in fatty acid utilization. Duchenne Muscular Dystrophy is a progressive, early-onset degenerative muscle disease with associated muscle function deficits resulting from the loss of the protein dystrophin. Fatty acid metabolism and altered mitochondrial function are reported to be an aspect of the disease.
C57BL/10ScSn-Dmdmdx/J and C57BL/10ScSnJ mice ˜5-7 weeks of age were received and housed singly in polycarbonate cages. Animals were fed standard chow and had access to feed and water at all times ad libitum. […] Vehicle was dosed for control groups. All the animals were dosed by oral gavage (PO) for 34-35 days. The mice were dosed at 8 AM on the last in-life study day with the necropsy started 2 hours after the final dose.
Mice were acclimated to a moving belt treadmill in a series of acclimation runs before evaluation for overall endurance at a set maximal speed. Each mouse was run in a separate lane that contained an electric stimulating grid. The number of visits to the electric stimulating grid and the number of shocks each animal received were recorded by the instrument and a technician evaluated the animal during the run to determine the time and distance to exhaustion. The maximum speed for all the three endurance runs was capped at 20 m/min. […]

mdx mouse muscle = test: Histology pathology assessment of muscle in mdx mice; type: in vivo
Text: Similar to the muscle pathology in Duchenne Muscular Dystrophy, mdx mice have dystrophic pathologies in skeletal muscle that is apparent soon after birth. Key aspects of this phenotype evident by pathology are the loss of myofibers through apoptosis/necrosis, evidence of regenerating muscle fibers, infiltrating immune cells, and increased muscle fibrosis.
Animals and dosing were as previously described. See Example 4.
Quadriceps, gastrocnemius and tibialis anterior muscles were harvested at necropsy, and fixed by immersion in 10% neutral buffered formalin and embedded in paraffin. Tissues were sectioned at […] from each block and slides were evaluated by a board certified veterinary pathologist. Histopathologic evaluation included qualitative and semi-quantitative evaluation for myofiber necrosis, inflammation, myofiber regeneration and interstitial fibrosis, as outlined in Tables 1, 2, and 3, respectively.
(§1) Diaphragm weights, histology scores and immunofluorescence data were tested using a parametric test if normality was confirmed by Shapiro-Wilk normality test (unpaired t-test for 2 groups or One way ANOVA followed by post hoc Dunn's multiple comparison testing versus the mdx vehicle group for 3 groups) and a Mann-Whitney test (2 groups) or Kruskal-Wallis One-Way ANOVA (non-parametric) followed by post hoc Dunn's multiple comparison testing versus the mdx vehicle group (3 groups) if the data were not normally distributed.

[3] = tested on: mdx mouse quadriceps muscle; test: Immunofluorescent (IgM) assessment of muscle necrosis in mdx mice; type: in vivo; settings: IgM immunofluorescence, FIG. 5
Method: Precut paraffin section slides were deparaffinized and incubated with AlexaFluor 488 conjugated wheat germ agglutinin followed by an incubation with Alexa 568 conjugated anti-mouse IgM (abcam, Product #ab175702). Slides were washed and mounted with coverslips using ProLong Diamond Antifade Mountant with DAPI. Imaging was performed on a Nikon fluorescent microscope using a 40× objective and composite images were stitched together using NIS Elements Software, V4.4 (Nikon, Tokyo, Japan). Analysis was completed using Image J 1.50b, Java 1.8.0_60 (64 bit).
as §1
Quadriceps muscle sections were labeled fluorescently to detect IgM antibody accumulation within damaged myofibers, an indication of loss of myofiber integrity and active necrosis. Each muscle section was imaged in its entirety and the number and size of necrotic regions was measured. […]

mdx mouse diaphragm = test: Diaphragm fibrosis by hydroxyproline assay in mdx mice; type: in vivo; settings: FIG. 10
Method: Diaphragm samples were harvested carefully and the central tendon was cut away to ensure hydroxyproline signal was derived from muscle and not collagen-rich tendon. Hydroxyproline assay was performed according to the manufacturers' instructions (Sigma-Aldrich Hydroxyproline Assay Kit). Final values were calculated as follows: […]
as §1
Diaphragms were evaluated for fibrosis by measuring hydroxyproline, an amino acid unique to collagen, in digested muscle. Mdx mice were confirmed to have increased fibrosis versus non-dystrophic control mice (FIG. 9).

[4] = tested on: Sprague-Dawley rat acute kidney injury; test: Ischemia-reperfusion kidney injury in rats, plasma creatinine; type: in vivo; settings: 30 mg/kg orally 4 hours after surgery, blood 24 hours after reperfusion, FIG. 11
Method: Sprague-Dawley male rats approximately 280-300 g, with ad libitum access to standard feed and water were used in these experiments. Rats were anesthetized with isoflurane and placed ventrally on a temperature controlled heated surgical platform. A skin incision was made on the dorsal surface, exposing both kidneys through flank incisions. Vascular clips were applied to both renal pedicles and occlusion lasted 45 minutes. After 45 min, the clips were removed, kidneys were monitored for successful reperfusion, and surgical sites were sutured. The sham group was subjected to similar surgical procedures, except that the occluding clamps were not applied. Four independent studies, testing each compound were performed. Compounds were formulated as a fresh daily suspension in 0.25% sodium carboxymethyl-cellulose, 0.25% Tween-80 in purified water. Compounds were dosed orally at 30 mg/kg 4 hours after animals awoke from surgery and sham surgery and IRI control animals were similarly dosed with vehicle.
Twenty-four (24) hours after reperfusion, blood was collected in K2 EDTA tubes by retro-orbital bleeding from all groups under mild isoflurane anesthesia. Plasma was separated by centrifugation at 3000 rpm for 10 minutes at 4° C. Plasma creatinine was analyzed using a fully automated clinical biochemistry analyzer (Siemens Dimension® Xpand® Plus Integrated Chemistry System)
Creatinine was tested for normal distribution in all groups via a D'Agostino-Pearson omnibus normality test and a Shapiro-Wilk normality test. Normally distributed data was subjected to an unpaired, two-tailed t test. Non-normally distributed data was subjected to a Mann-Whitney test (non-parametric). Statistical significance is determined by p<0.05 of IRI-vehicle compared to compound treated groups.

## Cc1cnc(-c2ccc(C(F)(F)F)cc2)n1Cc1ccccc1OCCC[C@@H](C)CC(=O)O [Compound 2d, (R)-3-methyl-6-(2-((5-methyl-2-(4-(trifluoromethyl)phenyl)-1H-imidazol-1-yl)methyl)phenoxy)hexanoic acid]
[1]; read-out: CL
  clearance: 25 mL/min/kg
[1]; read-out: High or Low CL
  clearance: < 85 mL/min/kg
[2]
  Mitochondrial biogenesis: increased in a dose-dependent manner
Mdx mouse
  Treadmill running distance: increased distance over mdx vehicle treated group mice
Mdx mouse muscle; 10 or 30 mg per kg PO, 34-35 days, FIG. 4
  Pathology scored necrosis, quadriceps: Decreased necrosis
Mdx mouse muscle; FIG. 6
  Inflammation, quadriceps muscle: Decreased inflammation
Mdx mouse muscle; FIG. 7
  Quadriceps muscle regeneration: increases
Mdx mouse muscle; FIG. 8
  Diaphragm muscle necrosis: reduced diaphragm necrosis
[3]
  Necrotic region size, quadriceps: decreased
Mdx mouse diaphragm
  Diaphragm fibrosis (hydroxyproline): reduced fibrosis
[4]
  Plasma creatinine: reduce plasma creatinine
